Measured values from US20230373939A1 (VERTEX PHARMACEUTICALS INCORPORATED, priority 2020, published 2023).

How the values were obtained:
[1] = molecular target: CFTR (Homo sapiens, UniProt P13569); assay: Standard Ussing Chamber Assay for CFTR potentiator activity; type: cell-based
Method: tert-Butyl N-[(6R,12R)-6-benzyloxy-12-methyl-6,15-bis(trifluoromethyl)-13,19-dioxa-3,4,18-triazatricyclo[12.3.1.12,5]nonadeca-1(18),2,4,14,16-pentaen-17-yl]-N-tert-butoxycarbonyl-carbamate (8.6 g, 11.77 mmol) was dissolved in ethanol (172 mL) then the flask was cycled 3 times between vacuum/nitrogen. Treated the mixture with 10% Pd/C (50% water wet, 1.8 g of 5% w/w, 0.8457 mmol) then cycled 3 times between vacuum/nitrogen and 3 times between vacuum/hydrogen and then stirred vigorously under hydrogen (balloon) at room temperature for 18 h. The mixture was cycled 3 times between vacuum/nitrogen, filtered over Celite washing with ethanol and then the filtrate was evaporated to give 7.3 g of tert-butyl N-tert-butoxycarbonyl-N-[(6R,12R)-6-hydroxy-12-methyl-6,15-bis(trifluoromethyl)-13,19-dioxa-3,4,18-triazatricyclo[12.3.1.12,5]nonadeca-1(18),2,4,14,16-pentaen-17-yl]carbamate an off-white solid. 1H NMR and MS confirmed the expected product. CFTR modulatory activity was confirmed using a standard Ussing Chamber Assay for CFTR potentiator activity.

[2] = molecular target: T1, F508del in NIH 3T3 cells (Homo sapiens, UniProt P13569, DEL508-508); assay: 3T3 assay: membrane potential optical assay for F508del correction; type: cell-based; conditions: NIH 3T3 cells, F508del; for Emax: NIH3T3, read-out: 3T3 Max Activity (%); for EC50: read-out: 3T3 EC50
T1 construct: expressed in transfected cells
Method in brief: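 NIH 3T3 mouse fibroblasts stably expressing F508del were incubated with corrector compounds at a range of concentrations for 16–24 h at 37 °C, then loaded with a voltage-sensing redistribution dye. Channel activity was read as membrane-potential change on FLIPR after a single addition of forskolin with a chloride-free (gluconate) bath creating a Cl⁻ gradient.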

T1 sequence (P13569 with tags, fused parts or gaps DEL508-508): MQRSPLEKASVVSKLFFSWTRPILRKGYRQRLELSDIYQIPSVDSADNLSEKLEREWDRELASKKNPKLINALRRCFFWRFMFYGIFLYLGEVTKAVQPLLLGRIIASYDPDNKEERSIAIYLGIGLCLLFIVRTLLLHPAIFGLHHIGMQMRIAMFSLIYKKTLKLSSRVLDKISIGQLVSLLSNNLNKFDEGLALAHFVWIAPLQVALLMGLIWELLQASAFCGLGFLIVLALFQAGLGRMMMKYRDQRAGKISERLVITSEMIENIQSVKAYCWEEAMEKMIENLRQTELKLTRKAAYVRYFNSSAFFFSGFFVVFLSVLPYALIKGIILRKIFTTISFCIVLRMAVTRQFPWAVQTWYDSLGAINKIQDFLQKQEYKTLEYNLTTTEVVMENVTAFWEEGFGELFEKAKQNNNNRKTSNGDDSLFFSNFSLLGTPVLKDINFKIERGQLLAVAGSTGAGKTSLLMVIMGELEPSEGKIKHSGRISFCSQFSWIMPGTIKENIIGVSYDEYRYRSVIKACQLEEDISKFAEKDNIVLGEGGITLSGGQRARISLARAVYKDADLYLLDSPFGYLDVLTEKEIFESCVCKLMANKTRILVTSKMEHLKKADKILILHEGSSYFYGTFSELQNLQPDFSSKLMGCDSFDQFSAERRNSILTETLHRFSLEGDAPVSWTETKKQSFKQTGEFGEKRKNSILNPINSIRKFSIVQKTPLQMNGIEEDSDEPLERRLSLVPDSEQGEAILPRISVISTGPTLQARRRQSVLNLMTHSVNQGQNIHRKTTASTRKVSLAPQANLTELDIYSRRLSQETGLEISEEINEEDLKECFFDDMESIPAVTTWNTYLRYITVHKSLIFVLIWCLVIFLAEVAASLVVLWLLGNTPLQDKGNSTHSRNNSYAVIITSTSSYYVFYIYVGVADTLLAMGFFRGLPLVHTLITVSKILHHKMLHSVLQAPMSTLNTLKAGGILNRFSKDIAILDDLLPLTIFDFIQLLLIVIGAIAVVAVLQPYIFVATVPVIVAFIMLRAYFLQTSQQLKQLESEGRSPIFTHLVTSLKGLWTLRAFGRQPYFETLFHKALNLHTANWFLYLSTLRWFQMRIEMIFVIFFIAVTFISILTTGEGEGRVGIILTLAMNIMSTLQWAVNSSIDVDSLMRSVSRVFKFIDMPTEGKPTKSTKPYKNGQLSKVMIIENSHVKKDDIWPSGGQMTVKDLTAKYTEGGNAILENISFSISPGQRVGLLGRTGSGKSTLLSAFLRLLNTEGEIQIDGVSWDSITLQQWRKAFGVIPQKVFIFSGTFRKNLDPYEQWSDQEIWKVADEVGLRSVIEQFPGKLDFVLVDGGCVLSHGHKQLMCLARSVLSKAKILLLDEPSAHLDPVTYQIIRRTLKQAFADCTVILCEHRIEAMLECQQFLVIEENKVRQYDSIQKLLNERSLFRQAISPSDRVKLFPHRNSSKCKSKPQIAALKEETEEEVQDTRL
CFTR, sequence (P13569 whole entry, species assumed): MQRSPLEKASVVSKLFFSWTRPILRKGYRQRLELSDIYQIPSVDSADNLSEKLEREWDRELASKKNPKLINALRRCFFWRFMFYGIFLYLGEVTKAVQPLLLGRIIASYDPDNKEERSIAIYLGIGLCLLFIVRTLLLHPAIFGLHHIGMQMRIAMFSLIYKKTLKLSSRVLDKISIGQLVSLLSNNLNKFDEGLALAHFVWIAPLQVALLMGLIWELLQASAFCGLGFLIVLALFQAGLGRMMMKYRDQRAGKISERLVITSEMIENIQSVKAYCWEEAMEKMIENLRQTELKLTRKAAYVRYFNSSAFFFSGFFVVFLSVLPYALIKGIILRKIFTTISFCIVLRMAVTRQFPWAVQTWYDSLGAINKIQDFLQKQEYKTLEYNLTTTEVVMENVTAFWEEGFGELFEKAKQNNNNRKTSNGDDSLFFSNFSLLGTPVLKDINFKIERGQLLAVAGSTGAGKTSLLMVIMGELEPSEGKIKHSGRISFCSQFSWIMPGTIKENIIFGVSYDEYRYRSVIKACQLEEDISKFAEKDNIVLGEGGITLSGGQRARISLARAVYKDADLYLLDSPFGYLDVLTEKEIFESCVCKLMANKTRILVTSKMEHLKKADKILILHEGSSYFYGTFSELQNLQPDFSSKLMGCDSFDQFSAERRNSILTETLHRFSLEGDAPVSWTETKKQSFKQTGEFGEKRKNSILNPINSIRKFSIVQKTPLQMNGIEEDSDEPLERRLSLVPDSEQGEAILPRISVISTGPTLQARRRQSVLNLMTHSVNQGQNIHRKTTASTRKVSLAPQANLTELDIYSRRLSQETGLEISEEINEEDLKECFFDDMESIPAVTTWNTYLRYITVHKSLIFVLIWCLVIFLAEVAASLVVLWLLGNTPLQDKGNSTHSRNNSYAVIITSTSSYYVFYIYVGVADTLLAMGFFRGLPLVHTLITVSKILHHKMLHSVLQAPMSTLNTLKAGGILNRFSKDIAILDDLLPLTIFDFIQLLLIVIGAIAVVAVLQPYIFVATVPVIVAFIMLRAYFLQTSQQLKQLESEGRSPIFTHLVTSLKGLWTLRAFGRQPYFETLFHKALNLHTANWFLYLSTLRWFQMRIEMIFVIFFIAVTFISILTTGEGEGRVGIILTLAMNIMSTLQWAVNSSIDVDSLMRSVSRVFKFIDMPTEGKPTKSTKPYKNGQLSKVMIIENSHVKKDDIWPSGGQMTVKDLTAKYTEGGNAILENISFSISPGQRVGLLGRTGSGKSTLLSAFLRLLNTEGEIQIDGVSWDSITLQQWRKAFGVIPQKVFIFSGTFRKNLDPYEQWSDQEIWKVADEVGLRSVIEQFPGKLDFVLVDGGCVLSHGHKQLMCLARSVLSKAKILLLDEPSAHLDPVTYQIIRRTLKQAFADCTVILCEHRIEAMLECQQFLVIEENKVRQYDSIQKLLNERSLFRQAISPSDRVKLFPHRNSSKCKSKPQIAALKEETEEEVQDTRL

| Structure (SMILES) | CFTR modulatory activity (CFTR potentiator activity) [1] | Emax [2] | EC50 [2] |
| --- | --- | --- | --- |
| C[C@@H]1CCCCC[C@](O)(C(F)(F)F)C2=NN=C(O2)c2nc(c(C(F)(F)F)cc2N)O1 [(6R,12R)-17-Amino-12-methyl-6,15-bis(trifluoromethyl)-13,19-dioxa-3,4,18-triazatricyclo[12.3.1.12,5]nonadeca-1(18),2,4,14,16-pentaen-6-ol] | confirmed |  |  |
| Cc1ccc(-c2nc(NS(=O)(=O)c3ccccc3)cc(C)c2C)c(C)c1 [Compound 156] |  | > 60% | 3 to 30 µM |
| COCCNC(=O)c1sc(NS(=O)(=O)c2ccccc2)nc1-c1ccccc1 [Compound 35, 2-(benzenesulfonamido)-N-(2-methoxyethyl)-4-phenyl-thiazole-5-carboxamide] |  | < 30% |  |
| O=S(=O)(Nc1nn(Cc2ccccc2)cc1-c1cccc(Cl)c1)c1ccccc1 [Compound 109, N-[1-benzyl-4-(3-chlorophenyl)pyrazol-3-yl]benzenesulfonamide] |  | < 30% |  |

Next, values leading:

| CFTR modulatory activity (CFTR potentiator activity) [1] | Emax [2] | EC50 [2] | Structure (SMILES) |
| --- | --- | --- | --- |
|  | > 60% | 1 to 3 µM | Cc1ccc(-c2nc(NS(=O)(=O)c3ccccc3)ccc2C)c(C)c1 [Compound 150] |
|  | < 30% |  | Cc1nc(NS(=O)(=O)c2ccccc2)sc1C [Compound 46, N-(4,5-dimethylthiazol-2-yl)benzenesulfonamide] |
|  | < 30% |  | COc1ccccc1-c1cn(Cc2ccccc2)nc1NS(=O)(=O)c1ccccc1 [Compound 113, N-[1-benzyl-4-(2-methoxyphenyl)pyrazol-3-yl]benzenesulfonamide] |
|  | > 60% | 1 to 3 µM | Cc1ccc(C)c(-c2nc(NS(=O)(=O)c3ccccc3)cc(C)c2C)c1 [Compound 139, N-[6-(2,5-Dimethylphenyl)-4,5-dimethyl-2-pyridyl]benzenesulfonamide] |
|  | > 60% | < 1 µM | Cc1cc(C)c(-n2nc(NS(=O)(=O)c3ccccc3)cc2-c2ccccc2Cl)c(C)c1 [Compound 58, N-[5-(2-chlorophenyl)-1-(2,4,6-trimethylphenyl)pyrazol-3-yl]benzenesulfonamide] |
